Reference: patent publication US9095138B2, “Isoxazoline insecticides” (E.I. du Pont de Nemours and Company, priority 2007, dated 2015)

Columns and labels:
[1] = system: diamondback moth (Plutella xylostella); experiment: Test A: control of diamondback moth on radish plant, foliar spray; format: in vivo; settings: sprayed at 50 ppm; neonate larvae on radish; assessed after 6 days; replicated three times
Description: For evaluating control of diamondback moth (Plutella xylostella) the test unit consisted of a small open container with a 12-14-day-old radish plant inside. This was pre-infested with about 50 neonate larvae that were dispensed into the test unit via corn-cob grits using a bazooka inoculator. The larvae moved onto the test plant after being dispensed into the test unit.
(§1) Test compounds were formulated using a solution containing 10% acetone, 90% water and 300 ppm X-77™ Spreader Lo-Foam Formula non-ionic surfactant containing alkylarylpolyoxyethylene, free fatty acids, glycols and isopropanol (Loveland Industries, Inc. Greeley, Colo., USA). The formulated compounds were applied in 1 mL of liquid through a SUJ2 atomizer nozzle with ⅛ JJ custom body (Spraying Systems Co. Wheaton, Ill., USA) positioned 1.27 cm (0.5 inches) above the top of each test unit. All experimental compounds in these tests were sprayed at 50 ppm, and the test was replicated three times. After spraying of the formulated test compound, each test unit was allowed to dry for 1 h and then a black, screened cap was placed on top. The test units were held for 6 days in a growth chamber at 25° C. and 70% relative humidity. Plant feeding damage was then visually assessed based on foliage consumed and a pest mortality rating was also counted and calculated for each test unit.

[2] = system: western flower thrips (Frankliniella occidentalis); experiment: Test E: control of western flower thrips on Soleil bean plant, contact and/or systemic; format: in vivo; settings: adult thrips, assessed after 6 days, replicated three times
Procedure: as §1
For evaluating control of the western flower thrips (Frankliniella occidentalis) through contact and/or systemic means, the test unit consisted of a small open container with a 5-7 day old Soleil Bean plant inside. Test compounds were formulated and sprayed as described for Test A. All experimental compounds in these tests were sprayed at 250 or 50 ppm as noted, and the test was replicated three times. After spraying, the test units were allowed to dry for 1 hour and then 22-27 adult thrips were added to each unit and then a black, screened cap was placed on top. The test units were held for 6 days at 25° C. and 45-55% relative humidity. A mortality rating was assessed along with a plant damage rating for each test unit.

SMILES: O=C(NC(C(=O)O)c1ccccc1)c1ccc(C2=NOC(c3cc(Cl)cc(Cl)c3)(C(F)(F)F)C2)c2ccccc12 (mixture of isomers) [Compound 5]
- control efficacy (feeding damage or mortality): very good to excellent levels [1]: 20% or less feeding damage or 80% or more mortality

SMILES: CC(NC(=O)c1ccc(C2=NOC(c3cc(Cl)cc(OC(F)(F)F)c3)(C(F)(F)F)C2)c2ccccc12)C(=O)O (mixture of isomers) [Compound 35]
- control efficacy (feeding damage or mortality): very good to excellent levels [1]: 20% or less feeding damage or 80% or more mortality

SMILES: CC(NC(=O)c1ccc(C2=NOC(c3cc(Cl)cc(OCC(F)(F)F)c3)(C(F)(F)F)C2)c2ccccc12)C(=O)O (mixture of isomers) [Compound 37]
- control efficacy (feeding damage or mortality): very good to excellent levels [1]: 20% or less feeding damage or 80% or more mortality

SMILES: CN(CCCNC(=O)c1ccc(C2=NOC(c3cc(Cl)cc(Cl)c3)(C(F)(F)F)C2)c2ccccc12)C(=O)OC(C)(C)C (racemic) [Compound 3]
- control efficacy (feeding damage or mortality): very good to excellent levels ([2]; sprayed at 50 ppm): 20% or less feeding damage or 80% or more mortality
- control efficacy (feeding damage or mortality): very good to excellent levels ([2]; sprayed at 250 ppm): 20% or less feeding damage or 80% or more mortality
- control efficacy (feeding damage or mortality): very good to excellent levels [1]: 20% or less feeding damage or 80% or more mortality

SMILES: CC(C)(NC(=O)c1ccc(C2=NOC(c3cc(Cl)cc(Cl)c3)(C(F)(F)F)C2)c2ccccc12)C(=O)O (racemic) [Compound 6]
- control efficacy (feeding damage or mortality): very good to excellent levels ([2]; sprayed at 50 ppm): 20% or less feeding damage or 80% or more mortality
- control efficacy (feeding damage or mortality): very good to excellent levels ([2]; sprayed at 250 ppm): 20% or less feeding damage or 80% or more mortality
- control efficacy (feeding damage or mortality): very good to excellent levels [1]: 20% or less feeding damage or 80% or more mortality

SMILES: O=C(O)CCNC(=O)c1ccc(C2=NOC(c3cc(Cl)cc(Cl)c3)(C(F)(F)F)C2)c2ccccc12 (racemic) [Compound 7]
- control efficacy (feeding damage or mortality): very good to excellent levels [1]: 20% or less feeding damage or 80% or more mortality

SMILES: O=C(O)CNC(=O)c1ccc(C2=NOC(c3cc(Cl)c(Cl)c(Cl)c3)(C(F)(F)F)C2)c2ccccc12 (racemic) [Compound 8]
- control efficacy (feeding damage or mortality): very good to excellent levels ([2]; sprayed at 250 ppm): 20% or less feeding damage or 80% or more mortality
- control efficacy (feeding damage or mortality): very good to excellent levels [1]: 20% or less feeding damage or 80% or more mortality

SMILES: CS(=O)(=O)NC(=O)c1ccc(C2=NOC(c3cc(Cl)cc(Cl)c3)(C(F)(F)F)C2)c2ccccc12 (racemic) [Compound 10]
- control efficacy (feeding damage or mortality): very good to excellent levels [1]: 20% or less feeding damage or 80% or more mortality

SMILES: O=C(O)CNC(=O)c1ccc(C2=NOC(c3cc(Cl)cc(Cl)c3)(C(F)(F)F)C2)c2ccccc12 (racemic) [Compound 12]
- control efficacy (feeding damage or mortality): very good to excellent levels [1]: 20% or less feeding damage or 80% or more mortality

SMILES: O=C([O-])CNC(=O)c1ccc(C2=NOC(c3cc(Cl)cc(Cl)c3)(C(F)(F)F)C2)c2ccccc12.[Na+] (racemic) [Compound 13]
- control efficacy (feeding damage or mortality): very good to excellent levels [1]: 20% or less feeding damage or 80% or more mortality

SMILES: O=C(O)CNC(=O)c1ccc(C2=NOC(c3cc(Br)cc(C(F)(F)F)c3)(C(F)(F)F)C2)c2ccccc12 (racemic) [Compound 23]
- control efficacy (feeding damage or mortality): very good to excellent levels [1]: 20% or less feeding damage or 80% or more mortality

SMILES: CC(C)=NOC(=O)CNC(=O)c1ccc(C2=NOC(c3cc(C(F)(F)F)cc(C(F)(F)F)c3)(C(F)(F)F)C2)c2ccccc12 (racemic) [Compound 25]
- control efficacy (feeding damage or mortality): very good to excellent levels [1]: 20% or less feeding damage or 80% or more mortality

SMILES: O=C(O)CNC(=O)c1ccc(C2=NOC(c3cc(Cl)cc(C(F)(F)F)c3)(C(F)(F)F)C2)c2ccccc12 (racemic) [Compound 26]
- control efficacy (feeding damage or mortality): very good to excellent levels ([2]; sprayed at 250 ppm): 20% or less feeding damage or 80% or more mortality
- control efficacy (feeding damage or mortality): very good to excellent levels [1]: 20% or less feeding damage or 80% or more mortality

SMILES: O=C(O)CNC(=O)c1ccc(C2=NOC(c3cc(Cl)cc(OC(F)(F)F)c3)(C(F)(F)F)C2)c2ccccc12 (racemic) [Compound 34]
- control efficacy (feeding damage or mortality): very good to excellent levels [1]: 20% or less feeding damage or 80% or more mortality

SMILES: CC(C)[C@@H](NC(=O)c1ccc(C2=NOC(c3cc(C(F)(F)F)cc(C(F)(F)F)c3)(C(F)(F)F)C2)c2ccccc12)C(=O)O (stereo partly drawn) [Compound 39]
- control efficacy (feeding damage or mortality): very good to excellent levels [1]: 20% or less feeding damage or 80% or more mortality

SMILES: CC(C)(NC(=O)c1ccc(C2=NOC(c3cc(Cl)cc(Cl)c3)(C(F)(F)F)C2)c2ccccc12)C(=O)NCC1CC1 (stereo not drawn) [Compound 43]
- control efficacy (feeding damage or mortality): very good to excellent levels ([2]; sprayed at 50 ppm): 20% or less feeding damage or 80% or more mortality
- control efficacy (feeding damage or mortality): very good to excellent levels ([2]; sprayed at 250 ppm): 20% or less feeding damage or 80% or more mortality
- control efficacy (feeding damage or mortality): very good to excellent levels [1]: 20% or less feeding damage or 80% or more mortality

SMILES: O=C(CNC(=O)c1ccc(C2=NOC(c3cc(Cl)cc(Cl)c3)(C(F)(F)F)C2)c2ccccc12)NCc1ccccn1 (stereo not drawn) [Compound 45]
- control efficacy (feeding damage or mortality): very good to excellent levels ([2]; sprayed at 250 ppm): 20% or less feeding damage or 80% or more mortality
- control efficacy (feeding damage or mortality): very good to excellent levels [1]: 20% or less feeding damage or 80% or more mortality

SMILES: O=C(CNC(=O)c1ccc(C2=NOC(c3cc(Cl)cc(Cl)c3)(C(F)(F)F)C2)c2ccccc12)Nc1ccc(C(F)(F)F)cc1 (stereo not drawn) [Compound 46]
- control efficacy (feeding damage or mortality): very good to excellent levels [1]: 20% or less feeding damage or 80% or more mortality

SMILES: CSCCNC(=O)CNC(=O)c1ccc(C2=NOC(c3cc(Cl)cc(Cl)c3)(C(F)(F)F)C2)c2ccccc12 (stereo not drawn) [Compound 48]
- control efficacy (feeding damage or mortality): very good to excellent levels ([2]; sprayed at 250 ppm): 20% or less feeding damage or 80% or more mortality
- control efficacy (feeding damage or mortality): very good to excellent levels [1]: 20% or less feeding damage or 80% or more mortality

SMILES: CSCCNC(=O)CNC(=O)c1ccc(C2=NOC(c3cccc(Br)c3)(C(F)(F)F)C2)c2ccccc12 (stereo not drawn) [Compound 57]
- control efficacy (feeding damage or mortality): very good to excellent levels [1]: 20% or less feeding damage or 80% or more mortality

SMILES: O=C(CNC(=O)c1ccc(C2=NOC(c3cccc(OC(F)(F)F)c3)(C(F)(F)F)C2)c2ccccc12)NCc1ccccn1 (stereo not drawn) [Compound 59]
- control efficacy (feeding damage or mortality): very good to excellent levels [1]: 20% or less feeding damage or 80% or more mortality

SMILES: O=C(CNC(=O)c1ccc(C2=NOC(c3cc(F)cc(F)c3)(C(F)(F)F)C2)c2ccccc12)NC1CC1 (stereo not drawn) [Compound 62]
- control efficacy (feeding damage or mortality): very good to excellent levels [1]: 20% or less feeding damage or 80% or more mortality

SMILES: O=C(CNC(=O)c1ccc(C2=NOC(c3cccc(F)c3)(C(F)(F)F)C2)c2ccccc12)NC1CC1 (stereo not drawn) [Compound 63]
- control efficacy (feeding damage or mortality): very good to excellent levels [1]: 20% or less feeding damage or 80% or more mortality

SMILES: O=C(NCC(=O)N1CCCCC1)c1ccc(C2=NOC(c3cc(Cl)cc(Cl)c3)(C(F)(F)F)C2)c2ccccc12 (stereo not drawn) [Compound 89]
- control efficacy (feeding damage or mortality): very good to excellent levels ([2]; sprayed at 250 ppm): 20% or less feeding damage or 80% or more mortality
- control efficacy (feeding damage or mortality): very good to excellent levels [1]: 20% or less feeding damage or 80% or more mortality

SMILES: CCS(=O)(=O)N1CCN(C(=O)CNC(=O)c2ccc(C3=NOC(c4cccc(C(F)(F)F)c4)(C(F)(F)F)C3)c3ccccc23)CC1 (stereo not drawn) [Compound 92]
- control efficacy (feeding damage or mortality): very good to excellent levels [1]: 20% or less feeding damage or 80% or more mortality

SMILES: COC(=O)[C@@H]1CCCN1C(=O)c1ccc(C2=NOC(c3cc(Cl)cc(Cl)c3)(C(F)(F)F)C2)c2ccccc12 (stereo partly drawn) [Compound 97]
- control efficacy (feeding damage or mortality): very good to excellent levels [1]: 20% or less feeding damage or 80% or more mortality

SMILES: COC(=O)[C@H]1CCCN1C(=O)c1ccc(C2=NOC(c3cc(Cl)cc(Cl)c3)(C(F)(F)F)C2)c2ccccc12 (stereo partly drawn) [Compound 98]
- control efficacy (feeding damage or mortality): very good to excellent levels ([2]; sprayed at 250 ppm): 20% or less feeding damage or 80% or more mortality
- control efficacy (feeding damage or mortality): very good to excellent levels [1]: 20% or less feeding damage or 80% or more mortality

SMILES: O=C(O)[C@@H]1CCCN1C(=O)c1ccc(C2=NOC(c3cc(Cl)cc(Cl)c3)(C(F)(F)F)C2)c2ccccc12 (stereo partly drawn) [Compound 99]
- control efficacy (feeding damage or mortality): very good to excellent levels [1]: 20% or less feeding damage or 80% or more mortality

SMILES: CNC(=O)[C@@H]1CCCN1C(=O)c1ccc(C2=NOC(c3cc(Cl)cc(Cl)c3)(C(F)(F)F)C2)c2ccccc12 (stereo partly drawn) [Compound 103]
- control efficacy (feeding damage or mortality): very good to excellent levels [1]: 20% or less feeding damage or 80% or more mortality

SMILES: CCNC(=O)[C@@H]1CCCN1C(=O)c1ccc(C2=NOC(c3cc(Cl)cc(Cl)c3)(C(F)(F)F)C2)c2ccccc12 (stereo partly drawn) [Compound 105]
- control efficacy (feeding damage or mortality): very good to excellent levels [1]: 20% or less feeding damage or 80% or more mortality

SMILES: CCNC(=O)[C@H]1CCCN1C(=O)c1ccc(C2=NOC(c3cc(Cl)cc(Cl)c3)(C(F)(F)F)C2)c2ccccc12 (stereo partly drawn) [Compound 106]
- control efficacy (feeding damage or mortality): very good to excellent levels ([2]; sprayed at 50 ppm): 20% or less feeding damage or 80% or more mortality
- control efficacy (feeding damage or mortality): very good to excellent levels ([2]; sprayed at 250 ppm): 20% or less feeding damage or 80% or more mortality
- control efficacy (feeding damage or mortality): very good to excellent levels [1]: 20% or less feeding damage or 80% or more mortality
